Measured values reported in ChEMBL document CHEMBL1201862, “PubChem BioAssay data set” (2004).
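Values below derive from 48-hour exposures of cells grown in 96-well plates, with endpoints linearly interpolated between the two concentrations bracketing the appropriate inhibition level. Abbreviation: GI50, concentration required for 50% inhibition of growth.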 Calls of active or inactive are those of the source. Cut-off read from the data, not from the text of the source: active = GI50 up to about 1.1 µM and inactive = higher.

Legend:
Experiment in all cases: inhibition of tumour cell growth, NCI panel, 48 h
SK-MEL-5 = tested on: SK-MEL-5
PC-3 = tested on: PC-3
NCI-H23 = tested on: NCI-H23
KM12 = tested on: KM12
SNB-75 = tested on: SNB-75
UACC-257 = tested on: UACC-257
TK-10 = tested on: TK-10
CCRF-CEM = tested on: CCRF-CEM
Hs-578T = tested on: Hs-578T
MCF7 = tested on: MCF7
CAKI-1 = tested on: CAKI-1
T47D = tested on: T47D
ACHN = tested on: ACHN
UACC-62 = tested on: UACC-62
A549 = tested on: A549
SN12C = tested on: SN12C
MDA-N = tested on: MDA-N
K562 = tested on: K562
EKVX = tested on: EKVX
SK-MEL-2 = tested on: SK-MEL-2

Measured: GI50

O=C(N[C@@H](c1ccccc1)[C@@H](O)C(=O)OCc1ccc([N+](=O)[O-])cc1)c1ccccc1
inactive: SK-MEL-5 75.9 µM | PC-3 > 100 µM | NCI-H23 > 100 µM | KM12 > 100 µM | SNB-75 44.1 µM | UACC-257 > 100 µM | TK-10 > 100 µM | CCRF-CEM 67.6 µM | Hs-578T > 100 µM | MCF7 84.5 µM | CAKI-1 > 100 µM | T47D > 100 µM | ACHN > 100 µM | UACC-62 > 100 µM | A549 > 100 µM | SN12C > 100 µM | MDA-N > 100 µM | K562 51.3 µM | EKVX > 100 µM | SK-MEL-2 > 100 µM

CC(=O)c1c2c(cc3c1CC1(C3)Cc3cc4c(c(C(=O)O)c3C1)CCCC4)CCCC2.CC(N)c1ccccc1 (stereo not given)
inactive: SK-MEL-5 22.9 µM | PC-3 39.7 µM | NCI-H23 42 µM | KM12 27 µM | SNB-75 39.7 µM | UACC-257 30.9 µM | TK-10 37.5 µM | CCRF-CEM 31.7 µM | Hs-578T 36.6 µM | MCF7 29.1 µM | CAKI-1 33.4 µM | T47D 36.6 µM | ACHN 28.8 µM | UACC-62 30.7 µM | A549 30.2 µM | SN12C 30.7 µM | MDA-N 42.1 µM | K562 36.4 µM | EKVX 26.4 µM | SK-MEL-2 28.1 µM

CC(C(O)Cc1ccccc1)N(C)/N=N/c1ccc([N+](=O)[O-])cc1 (stereo not given)
inactive: SK-MEL-5 18.6 µM | PC-3 18.3 µM | NCI-H23 20.1 µM | KM12 21.7 µM | SNB-75 23.1 µM | UACC-257 21.4 µM | TK-10 22.5 µM | CCRF-CEM 29.6 µM | Hs-578T 24 µM | MCF7 24 µM | CAKI-1 21.9 µM | T47D 23.8 µM | ACHN 25.6 µM | UACC-62 18.8 µM | A549 23.1 µM | SN12C 22 µM | MDA-N 19.3 µM | K562 27.2 µM | EKVX 22.9 µM | SK-MEL-2 16.9 µM

COc1cc(/C=C/C2=NN(c3cccc(S(=O)(=O)O)c3)C3(C2)SCC(=O)N3c2nc3ccccc3s2)cc(OC)c1OC (stereo not given)
inactive: SK-MEL-5 74.1 µM | PC-3 45.9 µM | NCI-H23 69.3 µM | KM12 38.5 µM | SNB-75 63.5 µM | UACC-257 95.7 µM | TK-10 29.9 µM | CCRF-CEM 28.8 µM | Hs-578T 56.6 µM | MCF7 36.9 µM | CAKI-1 55.2 µM | T47D 15 µM | ACHN 64.3 µM | UACC-62 35.1 µM | A549 56.1 µM | SN12C 33.3 µM | MDA-N 39.4 µM | K562 41.1 µM | EKVX 68.1 µM | SK-MEL-2 42.1 µM

O=C(O)CCCN/C(=C1\C(=O)C(=O)N(c2ccccc2)C1=O)c1ccccc1
inactive: SK-MEL-5 > 100 µM | PC-3 > 100 µM | NCI-H23 > 100 µM | KM12 > 100 µM | SNB-75 > 100 µM | UACC-257 > 100 µM | TK-10 > 100 µM | CCRF-CEM > 100 µM | Hs-578T > 100 µM | MCF7 > 100 µM | CAKI-1 > 100 µM | T47D > 100 µM | ACHN > 100 µM | UACC-62 > 100 µM | A549 > 100 µM | SN12C > 100 µM | MDA-N > 100 µM | K562 > 100 µM | EKVX > 100 µM | SK-MEL-2 > 100 µM

CC(=O)C(C(=O)c1ccc(C)cc1)[C@@H]1OC(C)(C)O[C@@H]1[C@H]1COC(C)(C)O1 (stereo not given in full)
inactive: SK-MEL-5 12.1 µM | PC-3 8.57 µM | NCI-H23 9.53 µM | KM12 4.02 µM | SNB-75 13.4 µM | UACC-257 12.4 µM | TK-10 30.3 µM | CCRF-CEM 1.27 µM | Hs-578T 3.84 µM | MCF7 3.48 µM | CAKI-1 21.5 µM | T47D 11.4 µM | ACHN 9.59 µM | UACC-62 10.9 µM | A549 19.6 µM | SN12C 3.97 µM | MDA-N 7.21 µM | K562 2.05 µM | EKVX 23.9 µM | SK-MEL-2 8.99 µM

CCOC(=O)C(C)c1nc2cc(N3CCOCC3)c(F)cc2[nH]c1=O (stereo not given)
inactive: SK-MEL-5 > 100 µM | PC-3 > 100 µM | NCI-H23 > 100 µM | KM12 > 100 µM | SNB-75 > 100 µM | UACC-257 > 100 µM | TK-10 > 100 µM | CCRF-CEM > 100 µM | Hs-578T > 100 µM | MCF7 > 100 µM | CAKI-1 > 100 µM | T47D > 100 µM | ACHN > 100 µM | UACC-62 > 100 µM | A549 > 100 µM | SN12C > 100 µM | MDA-N > 100 µM | K562 > 100 µM | EKVX > 100 µM | SK-MEL-2 > 100 µM

Cn1c2ccccc2c(=S)c2cc(NC(=O)CCCCC(=O)Nc3ccc4c(c3)c(=S)c3ccccc3n4C)ccc21
inactive: SK-MEL-5 > 100 µM | PC-3 > 100 µM | NCI-H23 > 100 µM | KM12 > 100 µM | SNB-75 54 µM | UACC-257 > 100 µM | TK-10 > 100 µM | CCRF-CEM > 100 µM | Hs-578T > 100 µM | MCF7 > 100 µM | CAKI-1 > 100 µM | T47D > 100 µM | ACHN > 100 µM | UACC-62 > 100 µM | A549 > 100 µM | SN12C > 100 µM | MDA-N > 100 µM | K562 > 100 µM | EKVX > 100 µM | SK-MEL-2 > 100 µM

CCOC(=O)c1cc(-n2nnc3ccccc32)cn1C
inactive: SK-MEL-5 > 10 µM | PC-3 > 10 µM | NCI-H23 > 10 µM | KM12 > 10 µM | SNB-75 8.59 µM | UACC-257 > 10 µM | TK-10 > 10 µM | CCRF-CEM > 10 µM | Hs-578T > 10 µM | MCF7 > 10 µM | CAKI-1 > 10 µM | T47D > 10 µM | ACHN > 10 µM | UACC-62 > 10 µM | A549 > 10 µM | SN12C > 10 µM | MDA-N > 10 µM | K562 > 10 µM | EKVX > 10 µM | SK-MEL-2 > 10 µM

c1ccc(CN2C3C4N(Cc5ccccc5)C2C2N(Cc5ccccc5)C(C(N2Cc2ccccc2)N4Cc2ccccc2)N3Cc2ccccc2)cc1
inactive: SK-MEL-5 > 100 µM | PC-3 > 100 µM | NCI-H23 > 100 µM | KM12 > 100 µM | SNB-75 > 100 µM | UACC-257 > 100 µM | TK-10 > 100 µM | CCRF-CEM 40.1 µM | Hs-578T > 100 µM | MCF7 > 100 µM | CAKI-1 > 100 µM | T47D > 100 µM | ACHN > 100 µM | UACC-62 > 100 µM | A549 > 100 µM | SN12C > 100 µM | MDA-N > 100 µM | K562 > 100 µM | EKVX > 100 µM | SK-MEL-2 > 100 µM
